According to BindingDB's records for doi:10.1021/acs.jmedchem.6b01065 (2017):

Target: T1, Mineralocorticoid receptor (Homo sapiens, UniProt P08235)
T1 sequence (P08235 whole entry): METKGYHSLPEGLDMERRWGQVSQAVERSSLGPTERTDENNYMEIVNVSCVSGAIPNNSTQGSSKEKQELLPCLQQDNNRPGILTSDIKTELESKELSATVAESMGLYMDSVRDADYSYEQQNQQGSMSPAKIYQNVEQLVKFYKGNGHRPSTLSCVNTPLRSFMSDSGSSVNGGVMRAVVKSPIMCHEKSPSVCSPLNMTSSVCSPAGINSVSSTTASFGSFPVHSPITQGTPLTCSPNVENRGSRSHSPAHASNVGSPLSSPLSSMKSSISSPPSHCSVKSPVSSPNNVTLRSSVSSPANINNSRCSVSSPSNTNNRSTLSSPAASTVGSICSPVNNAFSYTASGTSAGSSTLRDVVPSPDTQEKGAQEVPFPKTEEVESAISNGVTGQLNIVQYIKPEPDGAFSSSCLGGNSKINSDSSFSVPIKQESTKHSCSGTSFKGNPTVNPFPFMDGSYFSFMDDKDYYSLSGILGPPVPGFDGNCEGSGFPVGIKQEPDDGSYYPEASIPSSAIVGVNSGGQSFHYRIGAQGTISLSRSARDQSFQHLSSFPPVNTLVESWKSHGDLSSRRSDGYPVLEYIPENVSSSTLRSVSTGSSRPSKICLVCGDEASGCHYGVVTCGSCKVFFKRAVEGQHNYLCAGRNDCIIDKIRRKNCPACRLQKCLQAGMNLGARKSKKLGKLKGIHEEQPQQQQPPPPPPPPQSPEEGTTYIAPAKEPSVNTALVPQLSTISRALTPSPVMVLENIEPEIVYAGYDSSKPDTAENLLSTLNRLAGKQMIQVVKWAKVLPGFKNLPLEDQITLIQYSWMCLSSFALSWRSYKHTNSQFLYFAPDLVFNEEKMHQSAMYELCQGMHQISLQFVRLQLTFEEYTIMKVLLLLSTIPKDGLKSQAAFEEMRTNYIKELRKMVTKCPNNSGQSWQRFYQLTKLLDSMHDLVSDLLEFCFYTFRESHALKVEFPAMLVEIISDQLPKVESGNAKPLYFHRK
Experiment: Antagonist activity at Gal4-fused human MR LBD (671 to 984 residues) expressed in African Green Monkey CV-1 cells assessed as inhibition of aldosterone-induced transactivation activity after 20 hrs by luciferase reporter gene assay

Cc1c(C(=O)Nc2ccc(S(C)(=O)=O)cc2)cc(CCO)n1-c1ccc(Cl)cc1C(F)(F)F
IC50: 3.7 nM
